Assays:
novel HCEH = test: Inhibition of the novel HCEH; type: biochemical
HCEH = test: Activity of HCEH on hydroxy-cinnamic acid ester substances and tannic acid (liquid chromatography); type: biochemical; details: for Relative activity: HCEH on the substance as substrate, 0.1 M phosphate buffer pH 6.5, molar ratio of produced hydrolyzate; for Action and substrate specificity of the enzyme (hydrolysis of the ester linkage): qualitative
Method: Here, the activity of HCEH on various hydroxy-cinnamic acid ester substances and tannic acid was determined by measuring the quantity of their hydrolysis by means of liquid chromatography using 0.1 M phosphate buffer solution (pH 6.5). The results are shown in Table 3, where the activity is expressed as molar ratio of produced hydrolyzate.

Action and substrate specificity of the enzyme (hydrolysis of the ester linkage) (HCEH) | Compound | Inhibition of HCEH (novel HCEH) | Relative activity (HCEH)
 | [Fe+2] [Fe^++] | inhibited | 
 | Tannic acid |  | 0%
 | [Hg+2] [Hg^++] | inhibited | 
hydrolyze the ester linkage | O=C(C=Cc1ccc(O)c(O)c1)OC(C(=O)O)C(O)C(=O)O (stereo not shown) |  | 69.8%
 | Oc1cccc2cccnc12 [8-hydroxyquinoline] | inhibited | 
hydrolyze the ester linkage | O=C(C=Cc1ccc(O)c(O)c1)OC1CC(O)(C(=O)O)CC(O)C1O (stereo not shown) [3-caffeoyl quinic acid] |  | 100%
 | O=C(O)c1cc[c]([Hg][Cl])cc1 [p-CMB, p-chloromercury-benzoic acid] | inhibited | 
hydrolyze the ester linkage | O=C(C=Cc1ccc(O)cc1)OC(C(=O)O)C(O)C(=O)O (stereo not shown) [p-coumaroyl tartaric acid] |  | 78.3%
 | II [iodine] | inhibited | 

Compound | Action and substrate specificity of the enzyme (hydrolysis of the ester linkage) (HCEH) | Inhibition of HCEH (novel HCEH) | Relative activity (HCEH)
COc1cc(C=CC(=O)OC(C(=O)O)C(O)C(=O)O)ccc1O (stereo not shown) [feruloyl tartaric acid] | hydrolyze the ester linkage |  | 

Reference: patent US4370416A (Kikkoman Corporation, priority 1980, dated 1983)
